Measured values from article PMC3367138, “Selective inhibitors of cardiac ADPR cyclase as novel anti-arrhythmic compounds” (Naunyn-Schmiedeberg's Archives of Pharmacology, 2012).

Target: T1, adenosine A2A receptor (Homo sapiens, UniProt P29274)
T1 construct: gene ADORA2A
Test: radioligand displacement (agonist radioligand), single concentration […] in duplicate; […] of control remaining ([…] inhibition)
Assay type: binding

T1 sequence (P29274 whole entry): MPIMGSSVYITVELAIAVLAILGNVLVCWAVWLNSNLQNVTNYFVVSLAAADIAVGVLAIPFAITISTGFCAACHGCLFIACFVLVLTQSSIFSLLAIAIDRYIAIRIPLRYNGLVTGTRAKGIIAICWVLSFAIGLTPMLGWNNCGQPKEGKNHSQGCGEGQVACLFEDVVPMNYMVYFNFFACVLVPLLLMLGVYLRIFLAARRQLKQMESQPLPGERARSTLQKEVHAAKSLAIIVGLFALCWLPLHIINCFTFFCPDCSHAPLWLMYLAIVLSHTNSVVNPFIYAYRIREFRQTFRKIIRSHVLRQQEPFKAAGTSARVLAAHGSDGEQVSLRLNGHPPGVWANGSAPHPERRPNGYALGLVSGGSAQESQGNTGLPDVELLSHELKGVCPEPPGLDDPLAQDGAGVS

inhibition at 10 µM: 81%
Compound: Cc1nn(Cc2cccc(C(=O)O)c2)c2nc(-c3ccncc3)[nH]c(=O)c12 [SAN4825]
